This passage reports EC50 results from patent US9822147B2, “Methods of treating ophthalmic diseases using NPR-B agonists” (priority 2009, dated 2017).

In this experiment the target is T1, NPR-B (Homo sapiens, UniProt P20594).
T1 construct: a functional assay using endogenously NPR-B expressing GTM-3 cells; endogenous in cells; host or cells: GTM-3 (human glaucoma trabecular meshwork cells)
T1 sequence (P20594 23-1047): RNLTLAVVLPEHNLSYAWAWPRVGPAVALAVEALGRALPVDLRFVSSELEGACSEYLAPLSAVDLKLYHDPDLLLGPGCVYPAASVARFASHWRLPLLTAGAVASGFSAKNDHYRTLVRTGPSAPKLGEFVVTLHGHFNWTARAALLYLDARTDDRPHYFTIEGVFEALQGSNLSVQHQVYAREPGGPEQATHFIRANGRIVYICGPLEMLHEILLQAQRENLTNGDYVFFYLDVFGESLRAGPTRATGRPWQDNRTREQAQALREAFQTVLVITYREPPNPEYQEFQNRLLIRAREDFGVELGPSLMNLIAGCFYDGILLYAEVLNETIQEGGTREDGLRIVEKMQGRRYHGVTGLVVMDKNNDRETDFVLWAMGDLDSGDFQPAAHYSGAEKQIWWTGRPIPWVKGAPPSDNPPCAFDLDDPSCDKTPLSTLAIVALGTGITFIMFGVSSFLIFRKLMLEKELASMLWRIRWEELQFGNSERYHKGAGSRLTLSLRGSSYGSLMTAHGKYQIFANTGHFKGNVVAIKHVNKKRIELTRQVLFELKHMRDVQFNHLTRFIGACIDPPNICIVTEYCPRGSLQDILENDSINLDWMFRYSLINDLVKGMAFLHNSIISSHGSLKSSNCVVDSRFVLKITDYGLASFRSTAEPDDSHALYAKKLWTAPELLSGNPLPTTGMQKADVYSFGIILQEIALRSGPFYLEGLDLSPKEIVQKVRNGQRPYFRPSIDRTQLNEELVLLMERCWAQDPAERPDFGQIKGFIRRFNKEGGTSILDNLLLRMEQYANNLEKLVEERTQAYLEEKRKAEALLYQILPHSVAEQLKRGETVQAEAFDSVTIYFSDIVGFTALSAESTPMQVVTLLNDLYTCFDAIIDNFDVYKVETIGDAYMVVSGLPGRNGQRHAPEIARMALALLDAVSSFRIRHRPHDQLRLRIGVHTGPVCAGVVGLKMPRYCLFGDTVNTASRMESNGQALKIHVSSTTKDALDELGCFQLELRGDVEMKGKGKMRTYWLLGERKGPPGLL
Kind of experiment: NPR-B induced production of cyclic GMP in human glaucoma trabecular meshwork cells (GTM-3). It counts as cell-based.

Setting [1] is: group by EC50 and Emax (CNP = 100%), Table 4, read-out: Activity (group), NPR-B activation assayed with GTM-3 cells.

The structures appear in SMILES notation. pEC50: −log10 of the molar value. Where two headings read alike, the source gives them in different places. Numbered stars: 1 amine (or outer) side, 2 acyl side, 3 side chain; on linkers, the order of the positions; unused ones are H or OH. Square brackets hold non-standard residues; d marks the D form. Peptide text beside a SMILES is read from it. * marks the point of attachment. X2 = O=C([C@H]1CCCN([*:1])C1)[*:2]; Hyp = O=C(O)[C@@H]1C[C@@H](O)CN1; NMeL = CN[C@@H](CC(C)C)C(=O)O; dOrn = NCCC[C@@H](N)C(=O)O; Octanoyl = CCCCCCCC(=O)* A value given as a limit tells only on which side of the number the result lay.

In the case of `CCCCCCCC(=O)N[C@H](C)C(=O)N[C@@H](Cc1ccccc1)C(=O)N[C@H](CCCNC(=N)N)C(=O)N[C@@H](CC(C)C)C(=O)N1C[C@H](O)C[C@H]1C(=O)N[C@@H](CC(C)(C)C)C(=O)N[C@@H](CC(=O)O)C(=O)N[C@@H](CCCNC(=N)N)C(=O)N[C@H](C(N)=O)[C@@H](C)CC` [JAL-1225, Occ-ala-Phe-arg-Leu-Hyp-Npg-Asp-Arg-Ile-NH2] (HELM PEPTIDE1{[CCCCCCCC(=O)[*:2]].[dA].F.[dR].L.[Hyp].[CC(C)(C)C[C@H](N[*:1])C(=O)[*:2]].D.R.I.[am]}$$$$V2.0), under setting [1], the pEC50 was greater than 6.00. The compound `CCCCCCCC(=O)N[C@H](C)C(=O)N[C@@H](Cc1ccccc1)C(=O)NCC(=O)N[C@@H](CC(C)C)C(=O)N1C[C@H](N)C[C@H]1C(=O)N[C@@H](CC(C)C)C(=O)N[C@@H](CC(=O)O)C(=O)N[C@@H](CCCNC(=N)N)C(=O)N[C@H](C(N)=O)[C@@H](C)CC` [JAL-1249, Occ-ala-Phe-Gly-Leu-Tap-Leu-Asp-Arg-Ile-NH2] (HELM PEPTIDE1{[CCCCCCCC(=O)[*:2]].[dA].F.G.L.[N[C@@H]1C[C@@H](C(=O)[*:2])N([*:1])C1].L.D.R.I.[am]}$$$$V2.0) gave a pEC50 greater than 6.00. Consider `CCCCCCCC(=O)N[C@H](C)C(=O)N[C@@H](Cc1ccccc1)C(=O)N[C@H](CCCNC(=N)N)C(=O)N[C@@H](CC(C)C)C(=O)N1C[C@H](N)C[C@H]1C(=O)N[C@@H](CC(C)C)C(=O)N[C@@H](CC(=O)O)C(=O)N[C@@H](CCCNC(=N)N)C(=O)N[C@H](C(N)=O)[C@@H](C)CC` [JAL-1250, Occ-ala-Phe-arg-Leu-Tap-Leu-Asp-Arg-Ile-NH2] (HELM PEPTIDE1{[CCCCCCCC(=O)[*:2]].[dA].F.[dR].L.[N[C@@H]1C[C@@H](C(=O)[*:2])N([*:1])C1].L.D.R.I.[am]}$$$$V2.0), for which the pEC50 under setting [1] is greater than 6.00.

As for `CCCCCCCC(=O)N[C@H](C)C(=O)N[C@@H](Cc1ccccc1)C(=O)N[C@H](CO)C(=O)N[C@@H](CC(C)C)C(=O)N1C[C@H](O)C[C@H]1C(=O)N(C)[C@@H](CC(C)C)C(=O)N[C@@H](CC(=O)O)C(=O)N[C@@H](CCCNC(=N)N)C(=O)N[C@H](C(N)=O)[C@@H](C)CC` [JAL-1252, Occ-ala-Phe-ser-Leu-Hyp-Nml-Asp-Arg-Ile-NH2] (HELM PEPTIDE1{[CCCCCCCC(=O)[*:2]].[dA].F.[dS].L.[Hyp].[meL].D.R.I.[am]}$$$$V2.0), the pEC50 under setting [1] was greater than 6.00.

`CCCCCCCC(=O)N1CCC[C@H](C(=O)N[C@@H](Cc2ccccc2)C(=O)N[C@H](CCCCN)C(=O)N[C@@H](CC(C)C)C(=O)N2C[C@H](O)C[C@H]2C(=O)N(C)[C@@H](CC(C)C)C(=O)N[C@@H](CC(=O)O)C(=O)N[C@@H](CCCNC(=N)N)C(=O)N[C@H](C(N)=O)[C@@H](C)CC)C1` [JAL-1254, Occ-Sni-Phe-lys-Leu-Hyp-Nml-Asp-Arg-Ile-NH2] (HELM PEPTIDE1{[CCCCCCCC(=O)[*:2]].[O=C([C@H]1CCCN([*:1])C1)[*:2]].F.[dK].L.[Hyp].[meL].D.R.I.[am]}$$$$V2.0): the pEC50 under setting [1] was greater than 6.00. On the same count and under the same terms, to `CCCCCCCC(=O)N1CCC[C@H](C(=O)N[C@@H](Cc2ccccc2)C(=O)N[C@H](CCCNC(=N)N)C(=O)N[C@@H](CC(C)C)C(=O)N2C[C@H](O)C[C@H]2C(=O)N(C)[C@@H](CC(C)C)C(=O)N[C@@H](CC(=O)O)C(=O)N[C@@H](CCCNC(=N)N)C(=O)N[C@H](C(N)=O)[C@@H](C)CC)C1` [JAL-1255, Occ-Sni-Phe-arg-Leu-Hyp-Nml-Asp-Arg-Ile-NH2] (HELM PEPTIDE1{[CCCCCCCC(=O)[*:2]].[O=C([C@H]1CCCN([*:1])C1)[*:2]].F.[dR].L.[Hyp].[meL].D.R.I.[am]}$$$$V2.0) belongs greater than 6.00.

As for `CCCCCCCC(=O)N1CCC[C@H](C(=O)N[C@@H](Cc2ccccc2)C(=O)N[C@H](CCCN)C(=O)N[C@@H](CC(C)C)C(=O)N2C[C@H](O)C[C@H]2C(=O)N(C)[C@@H](CC(C)C)C(=O)N[C@@H](CC(=O)O)C(=O)N[C@@H](CCCNC(=N)N)C(=O)N[C@H](C(N)=O)[C@@H](C)CC)C1` [JAL-1265, Occ-Sni-Phe-orn-Leu-Hyp-Nml-Asp-Arg-Ile-NH2] (Octanoyl-[X2]F[dOrn]L[Hyp][NMeL]DRI-NH2), the pEC50 under setting [1] was greater than 6.00. For the compound `CCCCCCCC(=O)N[C@H](C)C(=O)N(C)[C@@H](Cc1ccccc1)C(=O)N[C@H](CC(C)C)C(=O)N[C@@H](CC(C)C)C(=O)N1C[C@H](O)C[C@H]1C(=O)N(C)[C@@H](CC(C)C)C(=O)N[C@@H](CC(=O)O)C(=O)N[C@@H](CCCNC(=N)N)C(=O)N[C@H](C(N)=O)[C@@H](C)CC` [JAL-1267, Occ-ala-Nmf-leu-Leu-Hyp-Nml-Asp-Arg-Ile-NH2] (HELM PEPTIDE1{[CCCCCCCC(=O)[*:2]].[dA].[meF].[dL].L.[Hyp].[meL].D.R.I.[am]}$$$$V2.0), under setting [1], the pEC50 is greater than 6.00. Turning to `CCCCCCCC(=O)N[C@H](C)C(=O)N[C@@H](Cc1ccccc1)C(=O)N[C@H](CC(C)C)C(=O)N[C@@H](CC(C)C)C(=O)N1C[C@H](O)C[C@H]1C(=O)N(C)C(CC(C)(C)C)C(=O)N[C@@H](CC(=O)O)C(=O)N[C@@H](CCCNC(=N)N)C(=O)N[C@H](C(N)=O)[C@@H](C)CC` (stereo partly drawn) [JAL-1283, Occ-ala-Phe-leu-Leu-Hyp-(SH-158)-Asp-Arg-Ile-NH2] (HELM PEPTIDE1{[CCCCCCCC(=O)[*:2]].[dA].F.[dL].L.[Hyp].[CN(C(CC(C)(C)C)C(=O)[*:2])[*:1]].D.R.I.[am]}$$$$V2.0), the pEC50 under setting [1] is greater than 6.00.

For `CCCCCCCC(=O)N[C@H](C)C(=O)N[C@@H](Cc1ccccc1)C(=O)N[C@H](CCCNC(=N)N)C(=O)N[C@@H](CC(C)C)C(=O)N1C[C@H](O)C[C@H]1C(=O)N(C)C(CC(C)(C)C)C(=O)N[C@@H](CC(=O)O)C(=O)N[C@@H](CCCNC(=N)N)C(=O)N[C@H](C(N)=O)[C@@H](C)CC` (stereo partly drawn) [JAL-1284, Occ-ala-Phe-arg-Leu-Hyp-(SH-158)-Asp-Arg-Ile-NH2] (HELM PEPTIDE1{[CCCCCCCC(=O)[*:2]].[dA].F.[dR].L.[Hyp].[CN(C(CC(C)(C)C)C(=O)[*:2])[*:1]].D.R.I.[am]}$$$$V2.0), under setting [1], the pEC50 is greater than 6.00. Regarding `CCCCCCCC(=O)N[C@H](C)C(=O)N[C@@H](Cc1ccccc1)C(=O)N[C@H](CCCN(C)C)C(=O)N[C@@H](CC(C)C)C(=O)N1C[C@H](O)C[C@H]1C(=O)N(C)[C@@H](CC(C)C)C(=O)N[C@@H](CC(=O)O)C(=O)N[C@@H](CCCNC(=N)N)C(=O)N[C@H](C(N)=O)[C@@H](C)CC` [JAL-1288, Occ-ala-Phe-orn(Me2)-Leu-Hyp-Nml-Asp-Arg-Ile-NH2] (HELM PEPTIDE1{[CCCCCCCC(=O)[*:2]].[dA].F.[CN(C)CCC[C@@H](N[*:1])C(=O)[*:2]].L.[Hyp].[meL].D.R.I.[am]}$$$$V2.0), the pEC50 under setting [1] is greater than 6.00. As to `CCCCCCCC(=O)OC(C)C(=O)N[C@@H](Cc1ccccc1)C(=O)N[C@H](CC(C)C)C(=O)N[C@@H](CC(C)C)C(=O)N1C[C@H](O)C[C@H]1C(=O)N(C)[C@@H](CC(C)C)C(=O)N[C@@H](CC(=O)O)C(=O)N[C@@H](CCCNC(=N)N)C(=O)N[C@H](C(N)=O)[C@@H](C)CC` (stereo partly drawn) [JAL-1294, (AR-201-49)-Phe-leu-Leu-Hyp-Nml-Asp-Arg-Ile-NH2] (HELM PEPTIDE1{[CCCCCCCC(=O)[*:2]].[CC(O[*:1])C(=O)[*:2]].F.[dL].L.[Hyp].[meL].D.R.I.[am]}$$$$V2.0), the pEC50 under setting [1] is greater than 6.00. `CCCCCCCC(=O)N[C@H](C)C(=O)N[C@@H](Cc1ccccc1)C(=O)N[C@H](CC(C)C)C(=O)N[C@@H](CC(C)C)C(=O)N1C[C@H](N)C[C@H]1C(=O)N(C)[C@@H](CC(C)C)C(=O)N[C@@H](CC(=O)O)C(=O)N[C@@H](CCCNC(=N)N)C(=O)N[C@H](C(N)=O)[C@@H](C)CC` [JAL-1296, Occ-ala-Phe-leu-Leu-Tap-Nml-Asp-Arg-Ile-NH2] (HELM PEPTIDE1{[CCCCCCCC(=O)[*:2]].[dA].F.[dL].L.[N[C@@H]1C[C@@H](C(=O)[*:2])N([*:1])C1].[meL].D.R.I.[am]}$$$$V2.0): the pEC50 under setting [1] was greater than 6.00. `CCCCCCCCN1CCC[C@H](C(=O)N[C@@H](Cc2ccccc2)C(=O)N[C@H](CCCNC(=N)N)C(=O)N[C@@H](CC(C)C)C(=O)N2C[C@H](O)C[C@H]2C(=O)N(C)[C@@H](CC(C)C)C(=O)N[C@@H](CC(=O)O)C(=O)N[C@@H](CCCNC(=N)N)C(=O)N[C@H](C(N)=O)[C@@H](C)CC)C1` [JAL-1297, Oct-Sni-Phe-arg-Leu-Hyp-Nml-Asp-Arg-Ile-NH2] (HELM PEPTIDE1{[CCCCCCCCN1CCC[C@H](C(=O)[*:2])C1].F.[dR].L.[Hyp].[meL].D.R.I.[am]}$$$$V2.0): the pEC50 under setting [1] is greater than 6.00.
